Test results taken from US6706740B2, “Fungicidal heterocyclic aromatic amides and their compositions, methods of use and preparation” (Dow AgroSciences LLC, priority 1999, dated 2004).

Tested on: Magnaporthe grisea (Pyricularia oryzae—PYRIOR)
Assay: microbe, parasite or virus in culture
Assay type: cell-based
Details: Pyricularia oryzae, read-out: PYRIOR in vitro Growth Inhibition

Structure (SMILES)	inhibition at 25 ppm [%]
COc1ccnc(C(=O)N[C@H]2COC(=O)[C@H](Cc3ccccc3)[C@@H](OC(=O)c3ccccc3)[C@H](C)OC2=O)c1O [Compound 394]	< 80
CC1(C)CC(NC(=O)c2nnc(O)nc2O)CC(C)(C)C1 [Compound 543]	< 80
CCCC(=O)Oc1c(OC)ccnc1C(=O)N[C@H]1COC(=O)[C@H](Cc2ccccc2)[C@@H](OC(=O)C(C)C)[C@H](C)OC1=O [Compound 599]	< 80

Tested on: Rhizoctonia solani (RHIZSO)
Assay: microbe, parasite or virus in culture
Assay type: cell-based
Details: Rhizoctonia solani, read-out: RHIZSO in vitro Growth Inhibition

Structure (SMILES)	inhibition at 25 ppm [%]
COc1ccnc(C(=O)N[C@H]2COC(=O)[C@H](Cc3ccccc3)[C@@H](OC(=O)c3ccccc3)[C@H](C)OC2=O)c1O [Compound 394]	< 80
CC1(C)CC(NC(=O)c2nnc(O)nc2O)CC(C)(C)C1 [Compound 543]	< 80
CCCC(=O)Oc1c(OC)ccnc1C(=O)N[C@H]1COC(=O)[C@H](Cc2ccccc2)[C@@H](OC(=O)C(C)C)[C@H](C)OC1=O [Compound 599]	< 80

Tested on: Mycosphaerella graminicola (Septoria tritici—SEPTTR)
Assay: In vitro fungal growth inhibition, Mycosphaerella graminicola (SEPTTR)
Assay type: cell-based
Details: Zymoseptoria tritici; 25 ppm in growth medium; read-out: SEPTTR in vitro Growth Inhibition

Structure (SMILES)	inhibition at 25 ppm [%]
COc1ccnc(C(=O)N[C@H]2COC(=O)[C@H](Cc3ccccc3)[C@@H](OC(=O)c3ccccc3)[C@H](C)OC2=O)c1O [Compound 394]	> 80
CCCC(=O)Oc1c(OC)ccnc1C(=O)N[C@H]1COC(=O)[C@H](Cc2ccccc2)[C@@H](OC(=O)C(C)C)[C@H](C)OC1=O [Compound 599]	> 80

Same assay, conditions: Zymoseptoria tritici; 25 ppm in the growth medium; read-out: SEPTTR in vitro Growth Inhibition

Structure (SMILES)	inhibition at 25 ppm [%]
CC1(C)CC(NC(=O)c2nnc(O)nc2O)CC(C)(C)C1 [Compound 543]	< 80

Tested on: Stagonospora nodorum (Leptosphaeria nodorum—LEPTNO)
Assay: In vitro fungal growth inhibition, Stagonospora nodorum (LEPTNO)
Assay type: cell-based
Details: Leptosphaeria; 25 ppm in growth medium; read-out: LEPTNO in vitro Growth Inhibition

Structure (SMILES)	inhibition at 25 ppm [%]
COc1ccnc(C(=O)N[C@H]2COC(=O)[C@H](Cc3ccccc3)[C@@H](OC(=O)c3ccccc3)[C@H](C)OC2=O)c1O [Compound 394]	> 80
CCCC(=O)Oc1c(OC)ccnc1C(=O)N[C@H]1COC(=O)[C@H](Cc2ccccc2)[C@@H](OC(=O)C(C)C)[C@H](C)OC1=O [Compound 599]	> 80

Same assay, conditions: Leptosphaeria; 25 ppm in the growth medium; read-out: LEPTNO in vitro Growth Inhibition

Structure (SMILES)	inhibition at 25 ppm [%]
CC1(C)CC(NC(=O)c2nnc(O)nc2O)CC(C)(C)C1 [Compound 543]	< 80

Tested on: Ustilago maydis (USTIMA)
Assay: microbe, parasite or virus in culture
Assay type: cell-based
Details: Mycosarcoma maydis, read-out: USTIMA in vitro Growth Inhibition

Structure (SMILES)	inhibition at 25 ppm [%]
COc1ccnc(C(=O)N[C@H]2COC(=O)[C@H](Cc3ccccc3)[C@@H](OC(=O)c3ccccc3)[C@H](C)OC2=O)c1O [Compound 394]	< 80
CC1(C)CC(NC(=O)c2nnc(O)nc2O)CC(C)(C)C1 [Compound 543]	< 80
CCCC(=O)Oc1c(OC)ccnc1C(=O)N[C@H]1COC(=O)[C@H](Cc2ccccc2)[C@@H](OC(=O)C(C)C)[C@H](C)OC1=O [Compound 599]	< 80

Tested on: Phytophthora infestans (PHYTIN)
Assay: microbe, parasite or virus in culture
Assay type: cell-based
Details: Phytophthora infestans, read-out: PHYTIN in vitro Growth Inhibition

Structure (SMILES)	inhibition at 25 ppm [%]
COc1ccnc(C(=O)N[C@H]2COC(=O)[C@H](Cc3ccccc3)[C@@H](OC(=O)c3ccccc3)[C@H](C)OC2=O)c1O [Compound 394]	< 80
CC1(C)CC(NC(=O)c2nnc(O)nc2O)CC(C)(C)C1 [Compound 543]	< 80
CCCC(=O)Oc1c(OC)ccnc1C(=O)N[C@H]1COC(=O)[C@H](Cc2ccccc2)[C@@H](OC(=O)C(C)C)[C@H](C)OC1=O [Compound 599]	< 80

Tested on: Phytophthora infestans—PHYTIN
Assay: whole plant or invertebrate
Assay type: in vivo
Details: Phytophthora, in Solanum lycopersicum, 24 h, read-out: PHYTIN in vivo 1 Day Protectant

Structure (SMILES)	pest or weed control at 100 ppm [%]
COc1ccnc(C(=O)N[C@H]2COC(=O)[C@H](Cc3ccccc3)[C@@H](OC(=O)c3ccccc3)[C@H](C)OC2=O)c1O [Compound 394]	< 25
CC1(C)CC(NC(=O)c2nnc(O)nc2O)CC(C)(C)C1 [Compound 543]	< 25
CCCC(=O)Oc1c(OC)ccnc1C(=O)N[C@H]1COC(=O)[C@H](Cc2ccccc2)[C@@H](OC(=O)C(C)C)[C@H](C)OC1=O [Compound 599]	< 25

Tested on: Puccinia recondita—PUCCRT
Assay: Brown Rust of Wheat, in vivo whole plant, 24 Hour Protectant
Details: 100 ppm spray, wheat, 24 hour protectant, % control of fungal infection vs untreated plants

Structure (SMILES)	PUCCRT in vivo 1 Day Protectant
CCCC(=O)Oc1c(OC)ccnc1C(=O)N[C@H]1COC(=O)[C@H](Cc2ccccc2)[C@@H](OC(=O)C(C)C)[C@H](C)OC1=O [Compound 599]	+ +

Same assay, conditions: Puccinia; 100 ppm spray, wheat, 24 hour protectant; control of fungal infection vs untreated plants; read-out: PUCCRT in vivo 1 Day Protectant

Structure (SMILES)	pest or weed control at 100 ppm [%]
COc1ccnc(C(=O)N[C@H]2COC(=O)[C@H](Cc3ccccc3)[C@@H](OC(=O)c3ccccc3)[C@H](C)OC2=O)c1O [Compound 394]	25 to 74

Same assay, conditions: Puccinia; wheat plants sprayed at 100 ppm, inoculated after 24 hours; control of fungal infection vs untreated plants; read-out: PUCCRT in vivo 1 Day Protectant

Structure (SMILES)	pest or weed control at 100 ppm [%]
CC1(C)CC(NC(=O)c2nnc(O)nc2O)CC(C)(C)C1 [Compound 543]	< 25

Tested on: Erysiphe graminis—ERYSGT
Assay: Powdery Mildew of Wheat, in vivo whole plant, 24 Hour Protectant
Details: Erysiphe; 100 ppm spray, wheat, 24 hour protectant, % control of fungal infection vs untreated plants; read-out: ERYSGT in vivo 1 Day Protectant

Structure (SMILES)	pest or weed control at 100 ppm [%]
CCCC(=O)Oc1c(OC)ccnc1C(=O)N[C@H]1COC(=O)[C@H](Cc2ccccc2)[C@@H](OC(=O)C(C)C)[C@H](C)OC1=O [Compound 599]	< 25

Same assay, conditions: Erysiphe; 100 ppm spray, wheat, 24 hour protectant; control of fungal infection vs untreated plants; read-out: ERYSGT in vivo 1 Day Protectant

Structure (SMILES)	pest or weed control at 100 ppm [%]
COc1ccnc(C(=O)N[C@H]2COC(=O)[C@H](Cc3ccccc3)[C@@H](OC(=O)c3ccccc3)[C@H](C)OC2=O)c1O [Compound 394]	< 25

Same assay, conditions: Erysiphe; wheat plants sprayed at 100 ppm, inoculated after 24 hours; control of fungal infection vs untreated plants; read-out: ERYSGT in vivo 1 Day Protectant

Structure (SMILES)	pest or weed control at 100 ppm [%]
CC1(C)CC(NC(=O)c2nnc(O)nc2O)CC(C)(C)C1 [Compound 543]	< 25

Tested on: Septoria tritici—SEPTTR
Assay: Leaf Blotch of Wheat, in vivo whole plant, 24 Hour Protectant
Details: 100 ppm spray, wheat, 24 hour protectant, % control of fungal infection vs untreated plants

Structure (SMILES)	SEPTTR in vivo 1 Day Protectant
CCCC(=O)Oc1c(OC)ccnc1C(=O)N[C@H]1COC(=O)[C@H](Cc2ccccc2)[C@@H](OC(=O)C(C)C)[C@H](C)OC1=O [Compound 599]	+ +

Same assay, conditions: Zymoseptoria tritici, 24 h, 100 ppm spray, wheat, 24 hour protectant; control of fungal infection vs untreated plants; read-out: SEPTTR in vivo 1 Day Protectant

Structure (SMILES)	pest or weed control at 100 ppm [%]
COc1ccnc(C(=O)N[C@H]2COC(=O)[C@H](Cc3ccccc3)[C@@H](OC(=O)c3ccccc3)[C@H](C)OC2=O)c1O [Compound 394]	25 to 74

Same assay, conditions: Zymoseptoria tritici, 24 h, wheat plants sprayed at 100 ppm, inoculated after 24 hours; control of fungal infection vs untreated plants; read-out: SEPTTR in vivo 1 Day Protectant

Structure (SMILES)	pest or weed control at 100 ppm [%]
CC1(C)CC(NC(=O)c2nnc(O)nc2O)CC(C)(C)C1 [Compound 543]	< 25

Tested on: Leptosphaeria nodorum—LEPTNO
Assay: Glume Blotch of Wheat, in vivo whole plant, 24 Hour Protectant
Details: 100 ppm spray, wheat, 24 hour protectant, % control of fungal infection vs untreated plants

Structure (SMILES)	LEPTNO in vivo 1 Day Protectant
CCCC(=O)Oc1c(OC)ccnc1C(=O)N[C@H]1COC(=O)[C@H](Cc2ccccc2)[C@@H](OC(=O)C(C)C)[C@H](C)OC1=O [Compound 599]	+ +

Same assay, conditions: 100 ppm spray, wheat, 24 hour protectant; control of fungal infection vs untreated plants

Structure (SMILES)	LEPTNO in vivo 1 Day Protectant
COc1ccnc(C(=O)N[C@H]2COC(=O)[C@H](Cc3ccccc3)[C@@H](OC(=O)c3ccccc3)[C@H](C)OC2=O)c1O [Compound 394]	+ +

Same assay, conditions: Leptosphaeria; wheat plants sprayed at 100 ppm, inoculated after 24 hours; control of fungal infection vs untreated plants; read-out: LEPTNO in vivo 1 Day Protectant

Structure (SMILES)	pest or weed control at 100 ppm [%]
CC1(C)CC(NC(=O)c2nnc(O)nc2O)CC(C)(C)C1 [Compound 543]	25 to 74

Tested on: not given
Assay: not given
Details: not given

Structure (SMILES)	melting point [°C]
COc1ccnc(C(=O)N[C@H]2COC(=O)[C@H](Cc3ccccc3)[C@@H](OC(=O)c3ccccc3)[C@H](C)OC2=O)c1O [Compound 394]	181 to 185
CC1(C)CC(NC(=O)c2nnc(O)nc2O)CC(C)(C)C1 [Compound 543]	283 to 285
CCCC(=O)Oc1c(OC)ccnc1C(=O)N[C@H]1COC(=O)[C@H](Cc2ccccc2)[C@@H](OC(=O)C(C)C)[C@H](C)OC1=O [Compound 599]	162 to 163
